# Source: US20100267561A1, “HERBICIDAL PYRIDAZINONE DERIVATIVES” (priority 2007, published 2010)
# Assays:
# Type in all cases: in vivo
# [1] = system: Italian ryegrass (Lolium multiflorum); assay: Test C pre-/postemergence plant response; settings: Preemergence
# Text: (§1) Seeds of plant species selected from annual bluegrass (Poa annua), blackgrass (Alopecurus myosuroides), canola (Brassica rapa), downy bromegrass (Bromus tectorum), green foxtail (Setaria viridis), Italian ryegrass (Lolium multiflorum), canarygrass (Phalaris minor), pigweed (Amaranthus retroflexus), spring barley (Hordeum vulgare), spring wheat (Triticum aestivum), wild mustard (Sinapis arvensis), wild oat (Avena fatua), windgrass (Apera spica-venti), winter barley (Hordeum vulgare), and winter wheat (Triticum aestivum) were planted and treated preemergence with test chemicals formulated in a non-phytotoxic solvent mixture which included a surfactant. At the same time, plants selected from these crop and weed species were treated with postemergence applications of some of the test chemicals formulated in the same manner. Plants ranged in height from 2 to 18 cm (1- to 4-leaf stage) for postemergence treatments.
# (§2) Treated plants and controls were maintained in a controlled growth environment for 15 to 25 days after which time all species were compared to controls and visually evaluated. Plant response ratings, summarized in Table C, are based on a scale of 0 to 100 where 0 is no effect and 100 is complete control. A dash (-) response means no test result.
# [2] = system: pigweed (Amaranthus retroflexus); assay: Test C pre-/postemergence plant response; settings: Preemergence
# Text: as §1, §2
# wild oat (Avena fatua) = assay: Test C pre-/postemergence plant response; settings: Preemergence
# Text: as §1, §2
# [3] = system: green foxtail (Setaria viridis); assay: Test C pre-/postemergence plant response; settings: Preemergence
# Text: as §1, §2
# [4] = system: wild mustard (Sinapis arvensis); assay: Test C pre-/postemergence plant response; settings: Preemergence
# Text: as §1, §2
# [5] = system: blackgrass (Alopecurus myosuroides); assay: Test C pre-/postemergence plant response; settings: Preemergence
# Text: as §1, §2
# [6] = system: spring barley (Hordeum vulgare); assay: Test C pre-/postemergence plant response; settings: Preemergence
# Text: as §1, §2
# [7] = system: downy bromegrass (Bromus tectorum); assay: Test C pre-/postemergence plant response; settings: Preemergence
# Text: as §1, §2
# [8] = system: canarygrass (Phalaris minor); assay: Test C pre-/postemergence plant response; settings: Preemergence
# Text: as §1, §2
# [9] = system: winter wheat (Triticum aestivum); assay: Test C pre-/postemergence plant response; settings: Preemergence
# Text: as §1, §2
# [10] = system: windgrass (Apera spica-venti); assay: Test C pre-/postemergence plant response; settings: Preemergence
# Text: as §1, §2
# [11] = system: winter barley (Hordeum vulgare); assay: Test C pre-/postemergence plant response; settings: Preemergence
# Text: as §1, §2
# [12] = system: annual bluegrass (Poa annua); assay: Test C pre-/postemergence plant response; settings: Preemergence
# Text: as §1, §2
# [13] = system: chickweed (Stellaria media); assay: Test B postemergence plant response; settings: for Chickweed plant response rating: 8 g ai/ha, postemergence, 0-100 scale; for Plant response rating, Chickweed: Postemergence
# Procedure, shortened: (§3)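 Visual injury score from 0 (none) to 100 (complete control) versus controls, taken 13 to 15 days after treatment in the greenhouse; chemicals applied postemergence, as formulated, to plants of 1- to 4-leaf stage (2 to 18 cm tall); dash denotes no test result.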
# [14] = system: canarygrass (Phalaris minor); assay: Test B postemergence plant response; settings: for Canarygrass plant response rating: 8 g ai/ha, postemergence, 0-100 scale; for Plant response rating, Canarygrass: Postemergence
# Procedure, shortened: as §3
# [15] = system: windgrass (Apera spica-venti); assay: Test B postemergence plant response; settings: for Windgrass plant response rating: 8 g ai/ha, postemergence, 0-100 scale; for Plant response rating, Windgrass: Postemergence
# Procedure, shortened: as §3
# [16] = system: winter barley (Hordeum vulgare); assay: Test B postemergence plant response; settings: for Barley plant response rating: 8 g ai/ha, postemergence, 0-100 scale; for Plant response rating, Barley: Postemergence, scale 0 to 100, 0 no effect, 100 complete control
# Procedure, shortened: as §3
# [17] = 8 g ai/ha, scale 0 to 100 (0 no effect, 100 complete control)
# [18] = 16 g ai/ha, scale 0 to 100 (0 no effect, 100 complete control)
# [19] = 31 g ai/ha, scale 0 to 100 (0 no effect, 100 complete control)
# [20] = 62 g ai/ha, scale 0 to 100, 0 no effect, 100 complete control
smiles,measurement,setting,value
Cc1cc(-c2ccc(Cl)cc2)nn1-c1c(OC(=O)c2cccs2)cnn(C)c1=O [Compound 52],"Plant response rating, Ryegrass, Italian",[1]; [17],0
same,"Plant response rating, Ryegrass, Italian",[1]; [18],65
same,"Plant response rating, Ryegrass, Italian",[1]; [19],90
same,"Plant response rating, Ryegrass, Italian",[1]; [20],100
same,"Plant response rating, Pigweed",[2]; [17],0
same,"Plant response rating, Pigweed",[2]; [18],0
same,"Plant response rating, Pigweed",[2]; [19],0
same,"Plant response rating, Pigweed",[2]; [20],0
same,"Plant response rating, Oat, Wild",wild oat (Avena fatua); [17],0
same,"Plant response rating, Oat, Wild",wild oat (Avena fatua); [18],40
same,"Plant response rating, Oat, Wild",wild oat (Avena fatua); [19],60
same,"Plant response rating, Oat, Wild",wild oat (Avena fatua); [20],60
same,"Plant response rating, Foxtail, Green",[3]; [17],75
same,"Plant response rating, Foxtail, Green",[3]; [18],100
same,"Plant response rating, Foxtail, Green",[3]; [19],100
same,"Plant response rating, Foxtail, Green",[3]; [20],100
same,"Plant response rating, Mustard, Wild",[4]; [17],0
same,"Plant response rating, Mustard, Wild",[4]; [18],0
same,"Plant response rating, Mustard, Wild",[4]; [19],0
same,"Plant response rating, Mustard, Wild",[4]; [20],0
same,"Plant response rating, Blackgrass",[5]; [17],40
same,"Plant response rating, Blackgrass",[5]; [18],60
same,"Plant response rating, Blackgrass",[5]; [19],95
same,"Plant response rating, Blackgrass",[5]; [20],95
same,"Plant response rating, Barley, Spring",[6]; [17],0
same,"Plant response rating, Barley, Spring",[6]; [18],0
same,"Plant response rating, Barley, Spring",[6]; [19],40
same,"Plant response rating, Barley, Spring",[6]; [20],60
same,"Plant response rating, Bromegrass, Downy",[7]; [17],0
same,"Plant response rating, Bromegrass, Downy",[7]; [18],0
same,"Plant response rating, Bromegrass, Downy",[7]; [19],15
same,"Plant response rating, Bromegrass, Downy",[7]; [20],80
same,"Plant response rating, Canarygrass",[8]; [17],0
same,"Plant response rating, Canarygrass",[8]; [18],65
same,"Plant response rating, Canarygrass",[8]; [19],90
same,"Plant response rating, Canarygrass",[8]; [20],95
same,"Plant response rating, Wheat, Winter",[9]; [17],0
same,"Plant response rating, Wheat, Winter",[9]; [18],0
same,"Plant response rating, Wheat, Winter",[9]; [19],40
same,"Plant response rating, Wheat, Winter",[9]; [20],65
same,"Plant response rating, Windgrass",[10]; [17],0
same,"Plant response rating, Windgrass",[10]; [18],0
same,"Plant response rating, Windgrass",[10]; [19],70
same,"Plant response rating, Windgrass",[10]; [20],70
same,"Plant response rating, Barley, Winter",[11]; [17],0
same,"Plant response rating, Barley, Winter",[11]; [18],0
same,"Plant response rating, Barley, Winter",[11]; [19],0
same,"Plant response rating, Barley, Winter",[11]; [20],50
same,"Plant response rating, Bluegrass",[12]; [17],0
same,"Plant response rating, Bluegrass",[12]; [18],0
same,"Plant response rating, Bluegrass",[12]; [19],10
same,"Plant response rating, Bluegrass",[12]; [20],10
same,Chickweed plant response rating,[13],0
same,"Plant response rating, Chickweed","[13]; 16 g ai/ha, scale 0 to 100",0
same,"Plant response rating, Chickweed","[13]; 31 g ai/ha, scale 0 to 100",0
same,"Plant response rating, Chickweed",[13]; [20],0
same,Canarygrass plant response rating,[14],0
same,"Plant response rating, Canarygrass","[14]; 16 g ai/ha, scale 0 to 100",0
same,"Plant response rating, Canarygrass","[14]; 31 g ai/ha, scale 0 to 100",0
same,"Plant response rating, Canarygrass",[14]; [20],5
same,Windgrass plant response rating,[15],0
same,"Plant response rating, Windgrass","[15]; 16 g ai/ha, scale 0 to 100",0
same,"Plant response rating, Windgrass","[15]; 31 g ai/ha, scale 0 to 100",60
same,"Plant response rating, Windgrass",[15]; [20],80
same,Barley plant response rating,[16],0
same,"Plant response rating, Barley",[16]; 16 g ai/ha,0
same,"Plant response rating, Barley",[16]; 31 g ai/ha,0
same,"Plant response rating, Barley",[16]; 62 g ai/ha,0
Cc1cc(-c2ccc(Cl)cc2)nn1-c1c(OC(=O)Oc2ccccc2)cnn(C)c1=O [Compound 54],"Plant response rating, Ryegrass, Italian",[1]; [17],0
same,"Plant response rating, Ryegrass, Italian",[1]; [18],20
same,"Plant response rating, Ryegrass, Italian",[1]; [19],100
same,"Plant response rating, Ryegrass, Italian",[1]; [20],100
same,"Plant response rating, Pigweed",[2]; [17],0
same,"Plant response rating, Pigweed",[2]; [18],0
same,"Plant response rating, Pigweed",[2]; [19],0
same,"Plant response rating, Pigweed",[2]; [20],0
same,"Plant response rating, Oat, Wild",wild oat (Avena fatua); [17],0
same,"Plant response rating, Oat, Wild",wild oat (Avena fatua); [18],0
same,"Plant response rating, Oat, Wild",wild oat (Avena fatua); [19],40
same,"Plant response rating, Oat, Wild",wild oat (Avena fatua); [20],70
same,"Plant response rating, Foxtail, Green",[3]; [17],40
same,"Plant response rating, Foxtail, Green",[3]; [18],98
same,"Plant response rating, Foxtail, Green",[3]; [19],100
same,"Plant response rating, Foxtail, Green",[3]; [20],100
same,"Plant response rating, Mustard, Wild",[4]; [18],0
same,"Plant response rating, Mustard, Wild",[4]; [19],0
same,"Plant response rating, Mustard, Wild",[4]; [20],0
same,"Plant response rating, Blackgrass",[5]; [17],35
same,"Plant response rating, Blackgrass",[5]; [18],70
same,"Plant response rating, Blackgrass",[5]; [19],100
same,"Plant response rating, Blackgrass",[5]; [20],100
same,"Plant response rating, Barley, Spring",[6]; [17],0
same,"Plant response rating, Barley, Spring",[6]; [18],0
same,"Plant response rating, Barley, Spring",[6]; [19],25
same,"Plant response rating, Barley, Spring",[6]; [20],70
same,"Plant response rating, Bromegrass, Downy",[7]; [17],0
same,"Plant response rating, Bromegrass, Downy",[7]; [18],0
same,"Plant response rating, Bromegrass, Downy",[7]; [19],15
same,"Plant response rating, Bromegrass, Downy",[7]; [20],80
same,"Plant response rating, Canarygrass",[8]; [17],0
same,"Plant response rating, Canarygrass",[8]; [18],70
same,"Plant response rating, Canarygrass",[8]; [19],80
same,"Plant response rating, Canarygrass",[8]; [20],95
same,"Plant response rating, Wheat, Winter",[9]; [17],0
same,"Plant response rating, Wheat, Winter",[9]; [18],0
same,"Plant response rating, Wheat, Winter",[9]; [19],35
same,"Plant response rating, Wheat, Winter",[9]; [20],50
same,"Plant response rating, Windgrass",[10]; [17],0
same,"Plant response rating, Windgrass",[10]; [18],0
same,"Plant response rating, Windgrass",[10]; [19],60
same,"Plant response rating, Windgrass",[10]; [20],75
same,"Plant response rating, Barley, Winter",[11]; [17],0
same,"Plant response rating, Barley, Winter",[11]; [18],10
same,"Plant response rating, Barley, Winter",[11]; [19],15
same,"Plant response rating, Barley, Winter",[11]; [20],75
same,"Plant response rating, Bluegrass",[12]; [17],0
same,"Plant response rating, Bluegrass",[12]; [18],0
same,"Plant response rating, Bluegrass",[12]; [19],0
same,"Plant response rating, Bluegrass",[12]; [20],25
same,Chickweed plant response rating,[13],0
same,"Plant response rating, Chickweed","[13]; 16 g ai/ha, scale 0 to 100",0
same,"Plant response rating, Chickweed","[13]; 31 g ai/ha, scale 0 to 100",0
same,"Plant response rating, Chickweed",[13]; [20],0
same,Canarygrass plant response rating,[14],0
same,"Plant response rating, Canarygrass","[14]; 16 g ai/ha, scale 0 to 100",0
same,"Plant response rating, Canarygrass","[14]; 31 g ai/ha, scale 0 to 100",0
same,"Plant response rating, Canarygrass",[14]; [20],0
same,Windgrass plant response rating,[15],0
same,"Plant response rating, Windgrass","[15]; 16 g ai/ha, scale 0 to 100",20
same,"Plant response rating, Windgrass","[15]; 31 g ai/ha, scale 0 to 100",20
same,"Plant response rating, Windgrass",[15]; [20],80
same,Barley plant response rating,[16],0
same,"Plant response rating, Barley",[16]; 16 g ai/ha,0
same,"Plant response rating, Barley",[16]; 31 g ai/ha,0
same,"Plant response rating, Barley",[16]; 62 g ai/ha,0
